The text below walks through data of US20030031715A1, “Pharmaceutical applications of hydrotropic agents, polymers thereof, and hydrogels thereof” (priority 2000, published 2003).

Molecules are shown by their SMILES. ≈ marks a conversion by molar mass, not a printed value.

Series [1] is described as follows: Progesterone aqueous solubility in hydrotropic solutions. In kind it is physicochemical. An excerpt:
(§1) These compounds were also used to examine the solubility increase of other poorly soluble drugs. […] Their chemical structures are shown below: [drawing 48]

The conditions of series [2]: log (CO/CW), octanol and water; cited from earlier work.
For series [3] the following is noted: at 37° C.; cited from earlier work.
The subject of another series is A-498. Put plainly: Antitumor cytotoxicity GI50, MTT bioassay. It counts as cell-based. Conditions: Homo sapiens, A498, A-498 (kidney). An excerpt: (§2) Purdue Cancer Center Cell Culture Laboratory has provided bioassay service for measuring antitumor cytotoxicity for many years. […] The standard bioassay is done in 96-well microtiter plates using MTT [3-(4,5-dimethylthiazole-2-yl)-2,5-diphenytetrazolium bromide]. MTT is cleaved in the mitochondria of live cells to produce a dark blue formazan product. […] Adriamycin is used as an internal reference antitumor agent for the quality control of the standardized cytotoxicity assay.
(§3) The results of cytotoxicity evaluations are compared with those of animal experiments to examine what formulations were optimal for each experiment.

In another series the test system is PaCa-2. Put plainly: Antitumor cytotoxicity GI50, MTT bioassay. As to conditions: Homo sapiens, PaCa-2 (pancreas). It counts as cell-based.
Excerpt: as §2, §3

In a further series the test system is MCF-7. Briefly: Antitumor cytotoxicity GI50, MTT bioassay. It counts as cell-based. Conditions: Homo sapiens, MCF7, MCF-7 (breast).
Excerpt: as §2, §3

Another series relates to HT-29. Put plainly: Antitumor cytotoxicity GI50, MTT bioassay. It counts as cell-based. Conditions: Homo sapiens, HT-29 (colon).
Excerpt: as §2, §3

A further series relates to PC-3. Put plainly: Antitumor cytotoxicity GI50, MTT bioassay. In kind it is cell-based. Conditions: Homo sapiens, PC-3 (prostate).
Excerpt: as §2, §3

For a further series, the system named is A-549. Put plainly: Antitumor cytotoxicity GI50, MTT bioassay. It counts as cell-based. As to conditions: Homo sapiens, A549, A-549 (lung).
Excerpt: as §2, §3

The nature of a further series: physchem.
Excerpt: as §1

On to `CC(=O)[C@H]1CC[C@H]2[C@@H]3CCC4=CC(=O)CC[C@]4(C)[C@H]3CC[C@]12C` [Progesterone], for which the “Progesterone solubility in hydrotropic solutions” value in [1] (0.0 M, 37° C., mean ±SD, n=3) stood at 0.0012 ± 0.0000. The solubility in [1] (37 °C, 0 M, control in pure water, read-out: Progesterone aqueous solubility) was found to be 1.2 µg/mL (≈ 3.82 µM); in series [1] (water without hydrotropic agent, water, 0.0 M, 37° C., mean ±SD, n=3, read-out: Progesterone solubility in hydrotropic solutions), 1.2 µg/mL (≈ 3.82 µM). The “Partition Coefficient” value in [2] is 3.84. The “Water Solubility (μM)” value in series [3] is 3.8 µM.

For `COc1cccc2c1C(=O)c1c(O)c3c(c(O)c1C2=O)C[C@@](O)(C(=O)CO)C[C@@H]3O[C@H]1C[C@H](N)[C@H](O)[C@H](C)O1` [Adriamycin], the GI50 with A-498 was determined as 0.005 µg/mL (≈ 0.0092 µM); in the series on PaCa-2, 0.005 µg/mL (≈ 0.0092 µM); in the series on MCF-7, 0.2 µg/mL (≈ 0.368 µM); with HT-29, 0.03 µg/mL (≈ 0.0552 µM); in the series with PC-3, 0.02 µg/mL (≈ 0.0368 µM); with A-549 it was 0.005 µg/mL (≈ 0.0092 µM).

As for `COC1=CC(=O)C[C@@H](C)[C@]12Oc1c(Cl)c(OC)cc(OC)c1C2=O` [Griseofulvin], the “Partition Coefficient” value in series [2] is on record as 2.07. Moreover, the “Water Solubility (μM)” value in [3] is 19.8 µM. Further, in the series “physchem”, the Griseofulvin aqueous solubility came out at 7 µg/mL. This molecule registered a solubility in the series “physchem” (37 °C, water) of 7 µg/mL (≈ 19.8 µM).
